From patent EP4635949A1 (Jiangsu NHWA Pharmaceutical Co., Ltd, priority 2022, dated 2024)
pIC50: −log10 of the molar value. Where two headings read alike, the source gives them in different places.

Experiments:
OX1 receptor = target: T1, OX1 receptor (Homo sapiens, UniProt O43613); assay: Orexin target function test (Cisbio HTRF IP-one), CHO-K1-OX1 cells, antagonism of EC80 Orexin A; format: cell-based
T1 construct: host or cells: CHO-K1
T1 sequence (O43613 1-425): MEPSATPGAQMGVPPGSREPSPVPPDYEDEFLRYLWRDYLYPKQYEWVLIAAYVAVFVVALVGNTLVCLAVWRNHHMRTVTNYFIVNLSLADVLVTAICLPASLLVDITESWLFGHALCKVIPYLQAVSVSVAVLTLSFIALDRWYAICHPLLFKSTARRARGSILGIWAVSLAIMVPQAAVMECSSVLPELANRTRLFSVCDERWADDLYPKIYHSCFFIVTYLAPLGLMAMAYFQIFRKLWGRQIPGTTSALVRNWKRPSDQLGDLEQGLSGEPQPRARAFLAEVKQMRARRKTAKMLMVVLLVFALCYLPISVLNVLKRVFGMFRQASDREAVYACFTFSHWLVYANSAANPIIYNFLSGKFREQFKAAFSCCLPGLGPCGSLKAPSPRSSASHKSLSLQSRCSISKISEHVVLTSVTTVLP
Experimental: (§1) Using Cisbio HTRF IP-one kit to detect the changes in IP-one concentration of orexin receptor (OX1/OX2) signaling pathway by microplate reader, and calculating the IC50 value of the compound to evaluate the antagonistic effect of the compound on OX1 and OX2 receptors.
(§2) The cells were centrifuged at 1000 rpm for 5 minutes and the supernatant was discarded. 3 mL of PBS was added, and gently blown with a pipette to mix. After centrifugation at 1000 rpm for 5 minutes again, the supernatant was discarded. […] Based on the antagonistic effect values of the compound samples at different concentrations, the GraphPad Prism software was used to fit the orexin receptor antagonism curve of the compound samples and calculate the IC50.

OX2 receptor = target: T2, OX2 receptor (Homo sapiens, UniProt O43614); assay: Orexin target function test (Cisbio HTRF IP-one), CHO-K1-OX2 cells, antagonism of EC80 Orexin 2 receptor agonist; format: cell-based
T2 construct: host or cells: CHO-K1
T2 sequence (O43614 1-444): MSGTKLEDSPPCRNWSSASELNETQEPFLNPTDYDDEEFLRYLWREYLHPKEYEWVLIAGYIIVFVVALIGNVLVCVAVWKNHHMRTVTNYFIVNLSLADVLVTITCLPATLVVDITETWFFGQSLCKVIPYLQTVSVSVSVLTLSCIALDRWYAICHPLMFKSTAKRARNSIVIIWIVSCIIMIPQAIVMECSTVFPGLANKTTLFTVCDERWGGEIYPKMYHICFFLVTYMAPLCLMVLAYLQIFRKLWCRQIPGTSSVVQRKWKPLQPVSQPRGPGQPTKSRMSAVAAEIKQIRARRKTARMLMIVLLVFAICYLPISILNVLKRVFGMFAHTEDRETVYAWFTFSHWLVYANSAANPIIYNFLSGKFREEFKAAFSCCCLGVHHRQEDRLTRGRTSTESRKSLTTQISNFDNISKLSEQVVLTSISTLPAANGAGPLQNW
Experimental: as §1, §2

[1] = Blood-brain barrier permeability of the test substance in rats; conditions: male, SD, rat, oral, 30 mg/kg; for Kp at 0.25 h: brain/plasma
in vivo [2] = conditions: male, SD, rat, plasma
[3] = male, SD, rat, in vivo, 30 mg/kg
in vivo [4] = conditions: male, SD, rat, 30 mg/kg
[5] = CHO-K1-OX1 cells, IP-one, read-out: hOXIR IC50
[6] = CHO-K1-OX2 cells, IP-one, read-out: hOX2R IC50

| pIC50 (OX1 receptor; [5]) | pIC50 (OX2 receptor; [6]) | concentration at 0.25 h ([1]; brain) | Kp at 0.25 h [1] | concentration at 0.25 h ([1]; plasma) | AUC(0-t) (in vivo [2]; iv, 1 mg/kg) | Cmax (in vivo [2]; iv, 1 mg/kg) | AUC(0-t) (in vivo [2]; po, 30 mg/kg) | Cmax (in vivo [2]; po, 30 mg/kg) | bioavailability (in vivo [2]; po, 30 mg/kg) | SMILES | Selectivity (OX2 receptor) | pIC50 (OX1 receptor) | pIC50 (OX2 receptor) | Brain [3] | Plasma [3] | Kp (in vivo [4]) |
| --- | --- | --- | --- | --- | --- | --- | --- | --- | --- | --- | --- | --- | --- | --- | --- | --- |
| 5.78 | 7.72 | 990 ng/g | 0.39 | 2570 ng/mL | 389 ng·h/mL | 706 ng/mL | 5600 ng·h/mL | 3980 ng/mL | 48% | COc1ccc(C(=O)N2CC3C=C(c4nc(C)cnc4OC)CC3C2)c(-n2nccn2)c1 (centres unmarked) [Compound 41, (4-methoxy-2-(2H-1,2,3-triazol-2-yl)phenyl)(5-(3-methoxy-6-methylpyrazin-2-yl)-3,3a,4,6a-tetrahydrocyclopenta[c]pyrrol-2(1H)-yl)methanone] | 87 | – | – | – | – | – |
| 5.89 | 7.62 | 193 ng/g | 0.52 | 372 ng/mL | – | – | – | – | – | COc1cc(C(=O)N2CC3C=C(c4nc(C)cnc4OC)CC3C2)c(-n2nccn2)cn1 (centres unmarked) [Compound 42, (2-methoxy-5-(2H-1,2,3-triazol-2-yl)pyridin-4-yl)(5-(3-methoxy-6-methylpyrazin-2-yl)-3,3a,4,6a-tetrahydrocyclopenta[c]pyrrol-2(1H)-yl)methanone] | 54 | – | – | – | – | – |
| – | – | – | – | – | – | – | – | – | – | COc1ncc(C)nc1C1=CC2CN(C(=O)c3ccc(F)cc3-n3nccn3)CC2C1 (centres unmarked) [Compound 44, [4-fluoro-2-(2H-1,2,3-triazol-2-yl)phenyl][5-(3-methoxy-6-methylpyrazin-2-yl)-3,3a,4,6a-tetrahydrocyclopenta[c]pyrrol-2(1H)-yl]methanone] | 133 | 5.62 | 7.74 | 231.3 ng/g | 235.6 ng/mL | 0.98 |

| SMILES | pIC50 (OX1 receptor; [5]) | pIC50 (OX2 receptor; [6]) | concentration at 0.25 h ([1]; brain) | Kp at 0.25 h [1] | concentration at 0.25 h ([1]; plasma) | AUC(0-t) (in vivo [2]; iv, 1 mg/kg) | Cmax (in vivo [2]; iv, 1 mg/kg) | AUC(0-t) (in vivo [2]; po, 30 mg/kg) | Cmax (in vivo [2]; po, 30 mg/kg) | bioavailability (in vivo [2]; po, 30 mg/kg) | Selectivity (OX2 receptor) | pIC50 (OX1 receptor) | pIC50 (OX2 receptor) | Brain [3] | Plasma [3] | Kp (in vivo [4]) |
| --- | --- | --- | --- | --- | --- | --- | --- | --- | --- | --- | --- | --- | --- | --- | --- | --- |
| COc1ncc(C)nc1C1=CC2CN(C(=O)c3c(F)cccc3-n3nccn3)CC2C1 (centres unmarked) [Compound 39, (2-fluoro-6-(2H-1,2,3-triazol-2-yl)phenyl)(5-(3-methoxy-6-methylpyrazin-2-yl)-3,3a,4,6a-tetrahydrocyclopenta[c]pyrrol-2(1H)-yl)methanone] | 5.92 | 7.70 | 285 ng/g | 0.28 | 1020 ng/mL | – | – | – | – | – | 60 | – | – | – | – | – |
